The record followed here is patent US8927559B2, “Quinazolinone-type compounds as CRTH2 antagonists” (Merck Sharp & Dohme Corp., priority 2010, dated 2015).

The test has as its target T1, CRTH2 receptor (hCRTH2) (Homo sapiens, UniProt Q9Y5Y4).
T1 construct: expressed in transfected cells; host or cells: HEK cells (HEK-hCRTH2 cell line), membranes
T1 sequence (Q9Y5Y4 1-395): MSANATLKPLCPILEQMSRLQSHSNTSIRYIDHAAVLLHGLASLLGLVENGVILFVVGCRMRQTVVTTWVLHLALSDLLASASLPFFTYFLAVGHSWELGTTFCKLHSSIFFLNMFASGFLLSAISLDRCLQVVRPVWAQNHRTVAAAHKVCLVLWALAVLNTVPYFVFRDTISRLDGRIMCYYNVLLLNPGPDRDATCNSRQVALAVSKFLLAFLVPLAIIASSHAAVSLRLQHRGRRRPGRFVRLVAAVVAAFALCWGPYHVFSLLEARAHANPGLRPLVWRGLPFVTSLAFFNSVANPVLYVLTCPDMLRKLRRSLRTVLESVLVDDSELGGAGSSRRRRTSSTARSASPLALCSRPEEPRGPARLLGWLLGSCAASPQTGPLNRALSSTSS
Kind of test: Radioligand binding assay ([3H]PGD2 competition, membranes of HEK-hCRTH2 cell line). The following applies: 3.0 nM [3H]PGD2, HEK-hCRTH2 membranes, 60 min, room temperature. A digest of the protocol: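 Membranes (8-20 μg protein) from HEK cells expressing human CRTH2 were incubated with [3H]PGD2 and competitor in 1% DMSO for 60 min at room temperature. Non-specific binding was defined with excess PGD2. Bound radioactivity was separated by filtration and counted by melt-on scintillation.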

SMILES strings stand for the structures. pKi: −log10 of the molar value. Where “and” joins values, the source holds several entries; their conditions need not be identical. Identical values can stand only once. Like-named read-outs stand apart in the source and are kept apart here.

One may read the pKi as −log10 of the Ki, conventionally taken in molar units. Take `C[C@@]1(c2cc3ccccn3n2)CC(c2ccc3c(=O)n(-c4ccc(F)cc4)c(CCCCC(=O)O)nc3c2)=NO1` [Example 201]: under “read-out: Ki”, the pKi is ≥ 8.00.
The same measure, in the same setting: for `CC1(C(=O)N2CCc3ccccc32)CC(c2ccc3c(=O)n(-c4ccc(F)cc4)c(CCCCC(=O)O)nc3c2)=NO1` (stereo not drawn) [Example 211] the value was ≥ 8.00; for `O=C(O)CCCCc1nc2cc(-c3cn(Cc4ccccc4)nn3)ccc2c(=O)n1-c1ccc(F)cc1` [Example 17, 5-[7-(1-benzyl-1H-1,2,3-triazol-4-yl)-3-(4-fluorophenyl)-4-oxo-3,4-dihydroquinazolin-2-yl]pentanoic acid], ≥ 8.00; for `CC1(c2ccncc2)CC(c2ccc3c(=O)n(-c4ccc(F)cc4)c(CCCCC(=O)O)nc3c2)=NO1` (stereo not drawn) [Example 252], ≥ 8.00.
On to `CC1(c2cccc(C#N)c2)CC(c2ccc3c(=O)n(-c4ccc(F)cc4)c(CCCCC(=O)O)nc3c2)=NO1` (stereo not drawn) [Example 118], for which, for the setting “Ki”, the pKi was 7.30 to 8.00.
With `CC(C)(C)c1ccc(-c2nc(-c3ccc4c(=O)n(-c5ccc(F)cc5)c(CCCCC(=O)O)nc4c3)no2)cc1` [Example 14C], where the note is “read-out: Ki”, the pKi is 7.30 to 8.00.
The same measure, in the same setting: next, `CC(c1ccc(F)cc1)c1cc(-c2ccc3c(=O)n(-c4ccc(F)cc4)c(CCCCC(=O)O)nc3c2)no1` (stereo not drawn) [Example 260]: ≥ 8.00; `C[C@]1(c2nc3cc(F)c(F)cc3[nH]2)CC(c2ccc3c(=O)n(-c4ccc(F)cc4)c(CCCCC(=O)O)nc3c2)=NO1` [Example 208]: ≥ 8.00; `C[C@@]1(Cc2ccccc2)CC(c2ccc3c(=O)n(-c4ccc(F)cc4)c(CCCCC(=O)O)nc3c2)=NO1` [Example 26, (R)-5-(7-(5-benzyl-5-methyl-4,5-dihydroisoxazol-3-yl)-3-(4-fluorophenyl)-4-oxo-3,4-dihydroquinazolin-2-yl)pentanoic acid]: ≥ 8.00 and 8.13.
On to `O=C(O)CCCCc1nc2cc(C3=NOC(c4nc5ccc(Cl)cc5s4)C3)ccc2c(=O)n1-c1ccc(F)cc1` (stereo not drawn) [Example 151], for which the pKi (read-out: Ki) was ≥ 8.00.
On the same count and under the same terms, next, `O=C(O)C1CC(Cc2nc3cc(-c4cc(Cc5ccc(F)cc5)on4)ccc3c(=O)n2-c2ccc(F)cc2)C1` (stereo not drawn) [Example 156]: 7.30 to 8.00; `CC(CCCc1nc2cc(C3=NOC(C)([C@@H](O)c4ccccc4)C3)ccc2c(=O)n1-c1ccc(F)cc1)C(=O)O` (stereo partly drawn) [Example 110]: 7.30 to 8.00.
For the setting “Ki”, `CC1(c2nc3ccccc3o2)CC(c2ccc3c(=O)n(-c4ccc(F)cc4)c(CCCCC(=O)O)nc3c2)=NO1` (single isomer, unassigned) [Example 35G, 5-(7-(5-(benzo[d]oxazol-2-yl)-5-methyl-4,5-dihydroisoxazol-3-yl)-3-(4-fluorophenyl)-4-oxo-3,4-dihydroquinazolin-2-yl)pentanoic acid] had a pKi of 7.30 to 8.00.
On to `O=C(O)CCCCc1nc2cc(-c3cc([C@H](O)c4ccc(F)cc4)on3)ccc2c(=O)n1-c1ccccc1` [Example 25E], for which the pKi (read-out: Ki) is ≥ 8.00.
With `C[C@@H]1C(c2ccc3c(=O)n(-c4ccc(F)cc4)c(CCCCC(=O)O)nc3c2)=NO[C@@H]1c1ccccc1` [Example 285], the pKi (read-out: Ki) is ≥ 8.00.
Still for that read-out and setting: next, `C[C@@]1(C(=O)N[C@H]2c3ccccc3C[C@H]2O)CC(c2ccc3c(=O)n(-c4ccc(F)cc4)c(CCCCC(=O)O)nc3c2)=NO1` [Example 215]: ≥ 8.00; `C[C@]1([C@@H](O)c2ccc(F)cc2)CC(c2ccc3c(=O)n(-c4ccc(F)cc4)c(CCCCC(=O)O)nc3c2)=NO1` [Example 290]: ≥ 8.00.
As for `CC1(c2ccccc2)CC(c2ccc3c(=O)n(-c4ccc(F)cc4)c(CCCCC(=O)O)nc3c2)=NO1` (stereo not drawn) [Example 15E], for the setting “Ki”, the pKi is 7.30 to 8.00.
As to `O=C(O)CCCCc1nc2cc(-c3noc(-c4ccncc4)n3)ccc2c(=O)n1-c1ccc(F)cc1` [Example 14, 5-{3-(4-fluorophenyl)-4-oxo-7-[5-(pyridin-4-0)-1,2,4-oxadiazol-3-yl]-3,4-dihydroquinazolin-2-yl}pentanoic acid], the pKi (read-out: Ki) is 7.30 to 8.00 and 7.76.
The same measure, in the same setting: next, `O=C(O)CCCCc1nc2cc(-c3noc(C4CCc5ccccc5C4)n3)ccc2c(=O)n1-c1ccc(F)cc1` (stereo not drawn) [Example 246]: ≥ 8.00.
The same measure, in the same setting: for `O=C(O)CCCCc1nc2cc(C3=NOC(c4cccc(Cl)c4)C3)ccc2c(=O)n1-c1ccc(F)cc1` (stereo not drawn) [Example 15P] the value was ≥ 8.00; for `O=C(O)CCCCc1nc2cc(-c3cc(COCc4ccc(F)cc4)on3)ccc2c(=O)n1-c1ccc(F)cc1` [Example 278], 7.30 to 8.00.
On the same count and under the same terms, next, `C[C@]1(Cc2ccccc2)CC(c2ccc3c(=O)n(-c4ccc(F)cc4)c(CCCCC(=O)O)nc3c2)=NO1` [Example 26E]: ≥ 8.00; `O=C(O)CCCCc1nc2cc(-c3cc(COCc4ccnc5ccccc45)on3)ccc2c(=O)n1-c1ccc(F)cc1` [Example 284]: 7.30 to 8.00; `C[C@@]1(c2nc3ccc(F)cc3[nH]2)CC(c2ccc3c(=O)n(-c4ccc(Cl)cc4)c(CCCCC(=O)O)nc3c2)=NO1` [Example 220]: ≥ 8.00.
On to `COc1ccc(Cc2nc(-c3ccc4c(=O)n(-c5ccc(F)cc5)c(CCCCC(=O)O)nc4c3)no2)cc1` [Example 240], for which the pKi (read-out: Ki) was ≥ 8.00.
Same read-out and setting: next, `CC1(C(=O)N2CCCCC2)CC(c2ccc3c(=O)n(-c4ccc(F)cc4)c(CCCCC(=O)O)nc3c2)=NO1` (stereo not drawn) [Example 212]: 7.30 to 8.00.
As to `O=C(O)CCCCc1nc2cc(-c3cc([C@H](O)c4ccccc4)on3)ccc2c(=O)n1-c1ccc(F)cc1` [Example 102], the pKi (read-out: Ki) is ≥ 8.00.
The same measure, in the same setting: for `O=C(O)CCCCc1nc2cc(-c3cc([C@@H](O)c4ccc(F)cc4)on3)ccc2c(=O)n1-c1ccccc1` [Example 25D] the value was ≥ 8.00.
The same measure, in the same setting: for `O=C(O)CCCCc1nc2cc(C3=NOC(c4nc5ccccc5o4)C3)ccc2c(=O)n1-c1ccc(F)cc1` (single isomer, unassigned) [Example 28E, 5-(7-(5-(benzo[d]oxazol-2-yl)-4,5-dihydroisoxazol-3-yl)-3-(4-fluorophenyl)-4-oxo-3,4-dihydroquinazolin-2-yl)pentanoic acid] the value was ≥ 8.00; for `CC[C@H](c1ccc(F)cc1)c1cc(-c2ccc3c(=O)n(-c4ccc(F)cc4)c(CCCCC(=O)O)nc3c2)no1` [Example 43, (R)-5-(3-(4-fluorophenyl)-7-(5-(1-(4-fluorophenyl)propyl)isoxazol-3-yl)-4-oxo-3,4-dihydroquinazolin-2-yl)pentanoic acid], ≥ 8.00; for `O=C(O)CCCCc1nc2cc(-c3cc(COCc4ccccc4F)on3)ccc2c(=O)n1-c1ccc(F)cc1` [Example 279], ≥ 8.00.
On to `O=C(O)CCCCc1nc2cc(-c3cc(-c4ccc5ccccc5n4)on3)ccc2c(=O)n1-c1ccc(F)cc1` [Example 33], for which the pKi (read-out: Ki) is ≥ 8.00.
The same measure, in the same setting: next, `CS(=O)(=O)c1ccc(Cn2cc(-c3ccc4c(=O)n(-c5ccc(F)cc5)c(CCCCC(=O)O)nc4c3)nn2)cc1` [Example 19D]: ≥ 8.00 and 8.92; `O=C(O)CCCCc1nc2cc(C3=NOC(c4nc5ccccc5o4)C3)ccc2c(=O)n1-c1ccc(F)cc1` (single isomer, unassigned) [Example 28D, 5-(7-(5-(benzo[d]oxazol-2-yl)-4,5-dihydroisoxazol-3-yl)-3-(4-fluorophenyl)-4-oxo-3,4-dihydroquinazolin-2-yl)pentanoic acid]: 7.30 to 8.00.
On to `O=C(O)CCCCc1nc2cc(-c3cc(CS(=O)(=O)c4nc5cc(OC(F)F)ccc5[nH]4)on3)ccc2c(=O)n1-c1ccc(F)cc1` [Example 39E, 5-(7-(5-((5-(difluoromethoxy)-1H-benzo[d]imidazol-2-ylsulfonyl)methyl)isoxazol-3-yl)-3-(4-fluorophenyl)-4-oxo-3,4-dihydroquinazolin-2-yl)pentanoic acid], for which the negative logarithm of the Ki (pKi) (read-out: Ki) is 7.30 to 8.00.
In the case of `C[C@@]1([C@@H](O)c2ccccc2)CC(c2ccc3c(=O)n(-c4ccccc4)c(CCCCC(=O)O)nc3c2)=NO1` [Example 26i], the pKi (read-out: Ki) is 7.30 to 8.00.
Still for that read-out and setting: for `COc1ccccc1S(=O)(=O)NCc1cc(-c2ccc3c(=O)n(-c4ccc(F)cc4)c(CCCCC(=O)O)nc3c2)no1` [Example 24, 5-(3-(4-fluorophenyl)-7-(5-((2-methoxyphenylsulfonamido)methyl)isoxazol-3-yl)-4-oxo-3,4-dihydroquinazolin-2-yl)pentanoic acid] the value was ≥ 8.00; for `C[C@@]1([C@@H](O)c2ccc(F)cc2)CC(c2ccc3c(=O)n(-c4ccc(F)cc4)c(CCCCC(=O)O)nc3c2)=NO1` [Example 291], 7.30 to 8.00.
Same read-out and setting: next, `COc1cccc(C2CC(c3ccc4c(=O)n(-c5ccc(Cl)cc5)c(CCCCC(=O)O)nc4c3)=NO2)c1` (stereo not drawn) [Example 15o]: ≥ 8.00; `C[C@]1(c2nc3ccc(F)cc3o2)CC(c2ccc3c(=O)n(-c4ccc(F)cc4)c(CCCCC(=O)O)nc3c2)=NO1` [Example 185]: 7.30 to 8.00.
Still for that read-out and setting: for `C[C@H](Oc1ccc(F)cc1)c1cc(-c2ccc3c(=O)n(-c4ccc(F)cc4)c(CCCCC(=O)O)nc3c2)no1` [Example 268] the value was ≥ 8.00.
For `COc1ccc2[nH]c(SCc3cc(-c4ccc5c(=O)n(-c6ccc(F)cc6)c(CCCCC(=O)O)nc5c4)no3)nc2c1` [Example 39H], the pKi (read-out: Ki) is 7.30 to 8.00.
Same read-out and setting: for `CC(C)(C)OC(=O)NCc1cc(-c2ccc3c(=O)n(-c4ccc(F)cc4)c(CCCCC(=O)O)nc3c2)no1` [Example 24Q] the value was ≥ 8.00; for `C[C@@H](O)c1cc(-c2ccc3c(=O)n(-c4ccc(F)cc4)c(CCCCC(=O)O)nc3c2)no1` [Example 265], 7.30 to 8.00.
